In publication PMC4457528, “Identification of Novel Small Molecule Inhibitors of Oncogenic RET Kinase” (PLoS ONE, 2015):
Like-named read-outs stand apart in the source and are kept apart here.

Experiments:
Assay in all cases: KinomeScan kinase panel, single concentration 10 µM
Type in all cases: binding
KinomeScan kinase panel [1] = target: T1, KinomeScan kinase panel (Homo sapiens, UniProt P00533, G719C); settings: EGFR(G719C), 10 µM
T1 construct: purchased DiscoveRx (KinomeScan)

KinomeScan kinase panel [2] = target: T2, KinomeScan kinase panel (Homo sapiens, UniProt P45985); settings: MEK4, 10 µM; read-out: score (%)
T2 construct: purchased DiscoveRx (KinomeScan)
T2 sequence (P45985 1-399): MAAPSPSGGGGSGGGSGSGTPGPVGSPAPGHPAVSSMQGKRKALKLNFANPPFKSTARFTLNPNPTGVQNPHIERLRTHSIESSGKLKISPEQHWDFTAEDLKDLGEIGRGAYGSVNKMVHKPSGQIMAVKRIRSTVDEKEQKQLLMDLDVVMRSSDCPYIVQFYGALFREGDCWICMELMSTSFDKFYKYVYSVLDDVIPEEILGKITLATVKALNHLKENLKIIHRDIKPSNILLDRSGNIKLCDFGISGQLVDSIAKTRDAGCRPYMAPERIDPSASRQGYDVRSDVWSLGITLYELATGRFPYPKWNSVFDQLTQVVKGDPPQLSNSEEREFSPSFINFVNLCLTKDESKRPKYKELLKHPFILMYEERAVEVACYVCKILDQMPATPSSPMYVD

KinomeScan kinase panel [3] = target: T3, KinomeScan kinase panel (Homo sapiens, UniProt P06213); settings: INSR, 10 µM; read-out: score (%)
T3 construct: purchased DiscoveRx (KinomeScan)
T3 sequence (P06213 28-1382): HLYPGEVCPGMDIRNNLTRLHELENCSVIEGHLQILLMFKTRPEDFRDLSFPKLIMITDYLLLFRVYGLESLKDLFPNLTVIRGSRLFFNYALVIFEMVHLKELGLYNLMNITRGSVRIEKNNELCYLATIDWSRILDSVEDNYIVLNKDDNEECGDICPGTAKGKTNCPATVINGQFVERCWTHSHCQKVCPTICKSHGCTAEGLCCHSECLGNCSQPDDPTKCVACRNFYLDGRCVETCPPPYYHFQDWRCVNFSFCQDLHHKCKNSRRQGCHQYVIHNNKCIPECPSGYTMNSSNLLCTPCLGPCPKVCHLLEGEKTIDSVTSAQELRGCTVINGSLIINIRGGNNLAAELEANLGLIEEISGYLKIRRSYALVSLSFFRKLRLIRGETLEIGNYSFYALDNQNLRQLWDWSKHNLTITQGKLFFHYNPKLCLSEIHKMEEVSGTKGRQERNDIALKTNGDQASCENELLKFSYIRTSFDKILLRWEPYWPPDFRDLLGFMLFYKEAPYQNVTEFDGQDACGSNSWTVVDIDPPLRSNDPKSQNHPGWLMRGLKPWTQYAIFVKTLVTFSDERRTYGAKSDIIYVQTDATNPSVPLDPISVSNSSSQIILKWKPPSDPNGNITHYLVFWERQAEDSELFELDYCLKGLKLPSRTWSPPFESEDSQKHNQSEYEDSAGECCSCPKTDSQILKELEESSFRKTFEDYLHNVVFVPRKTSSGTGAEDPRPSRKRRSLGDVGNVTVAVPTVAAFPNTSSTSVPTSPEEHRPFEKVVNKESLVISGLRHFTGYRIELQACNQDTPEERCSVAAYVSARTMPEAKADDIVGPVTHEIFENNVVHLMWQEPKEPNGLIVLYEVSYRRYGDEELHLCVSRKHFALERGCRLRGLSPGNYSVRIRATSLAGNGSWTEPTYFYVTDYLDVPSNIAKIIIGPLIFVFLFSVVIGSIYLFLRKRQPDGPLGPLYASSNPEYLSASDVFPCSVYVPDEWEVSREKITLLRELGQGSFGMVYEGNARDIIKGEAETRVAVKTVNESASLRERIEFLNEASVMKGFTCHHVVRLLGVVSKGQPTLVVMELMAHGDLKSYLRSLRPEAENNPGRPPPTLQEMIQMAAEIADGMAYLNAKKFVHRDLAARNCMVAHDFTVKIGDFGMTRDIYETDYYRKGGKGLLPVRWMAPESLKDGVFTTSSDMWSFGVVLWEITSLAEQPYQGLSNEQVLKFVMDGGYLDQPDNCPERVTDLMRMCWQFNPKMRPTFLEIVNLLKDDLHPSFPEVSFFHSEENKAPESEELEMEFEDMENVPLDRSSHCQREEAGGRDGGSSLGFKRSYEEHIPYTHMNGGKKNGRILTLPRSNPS

KinomeScan kinase panel [4] = target: T4, KinomeScan kinase panel (Homo sapiens, UniProt Q99683); settings: read-out: score (%)
T4 construct: purchased DiscoveRx (KinomeScan)
T4 sequence (Q99683 1-1374): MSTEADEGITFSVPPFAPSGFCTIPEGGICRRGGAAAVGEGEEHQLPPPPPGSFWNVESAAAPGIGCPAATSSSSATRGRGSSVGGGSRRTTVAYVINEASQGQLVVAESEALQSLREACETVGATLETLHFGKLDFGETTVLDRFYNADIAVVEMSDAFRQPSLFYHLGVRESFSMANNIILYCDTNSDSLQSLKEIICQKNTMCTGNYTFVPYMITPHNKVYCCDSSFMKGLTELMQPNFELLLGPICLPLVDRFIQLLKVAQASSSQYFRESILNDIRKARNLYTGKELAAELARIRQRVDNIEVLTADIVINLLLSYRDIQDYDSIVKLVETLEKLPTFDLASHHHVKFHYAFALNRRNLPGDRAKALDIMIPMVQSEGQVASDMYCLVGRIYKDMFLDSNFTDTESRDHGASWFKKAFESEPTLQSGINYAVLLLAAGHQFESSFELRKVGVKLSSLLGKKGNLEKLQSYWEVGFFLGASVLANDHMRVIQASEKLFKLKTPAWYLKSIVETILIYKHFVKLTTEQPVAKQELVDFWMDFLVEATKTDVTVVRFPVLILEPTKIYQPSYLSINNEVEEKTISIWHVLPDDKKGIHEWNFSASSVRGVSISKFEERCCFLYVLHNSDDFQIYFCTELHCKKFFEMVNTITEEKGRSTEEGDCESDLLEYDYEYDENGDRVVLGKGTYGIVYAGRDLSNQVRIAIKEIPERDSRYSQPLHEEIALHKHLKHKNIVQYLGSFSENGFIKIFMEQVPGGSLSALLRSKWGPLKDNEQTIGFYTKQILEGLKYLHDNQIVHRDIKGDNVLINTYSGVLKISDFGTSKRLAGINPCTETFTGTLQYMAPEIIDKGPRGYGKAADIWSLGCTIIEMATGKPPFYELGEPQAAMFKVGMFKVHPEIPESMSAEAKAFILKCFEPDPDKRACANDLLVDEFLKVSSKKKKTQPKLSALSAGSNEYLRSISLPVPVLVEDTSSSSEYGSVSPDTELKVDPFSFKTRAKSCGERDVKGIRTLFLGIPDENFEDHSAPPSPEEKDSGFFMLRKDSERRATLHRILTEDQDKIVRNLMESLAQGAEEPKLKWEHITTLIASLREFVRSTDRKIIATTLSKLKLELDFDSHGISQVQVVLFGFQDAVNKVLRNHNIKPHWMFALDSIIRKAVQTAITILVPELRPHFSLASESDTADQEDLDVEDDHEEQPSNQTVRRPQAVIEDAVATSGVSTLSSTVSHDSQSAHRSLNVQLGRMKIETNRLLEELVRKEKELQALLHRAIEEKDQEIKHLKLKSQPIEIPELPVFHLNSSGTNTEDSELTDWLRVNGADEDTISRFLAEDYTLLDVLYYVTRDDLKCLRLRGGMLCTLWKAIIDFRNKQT

KinomeScan kinase panel [5] = target: T5, KinomeScan kinase panel (Homo sapiens, UniProt P29323); settings: EPHB2, 10 µM
T5 construct: purchased DiscoveRx (KinomeScan)
T5 sequence (P29323 19-1055): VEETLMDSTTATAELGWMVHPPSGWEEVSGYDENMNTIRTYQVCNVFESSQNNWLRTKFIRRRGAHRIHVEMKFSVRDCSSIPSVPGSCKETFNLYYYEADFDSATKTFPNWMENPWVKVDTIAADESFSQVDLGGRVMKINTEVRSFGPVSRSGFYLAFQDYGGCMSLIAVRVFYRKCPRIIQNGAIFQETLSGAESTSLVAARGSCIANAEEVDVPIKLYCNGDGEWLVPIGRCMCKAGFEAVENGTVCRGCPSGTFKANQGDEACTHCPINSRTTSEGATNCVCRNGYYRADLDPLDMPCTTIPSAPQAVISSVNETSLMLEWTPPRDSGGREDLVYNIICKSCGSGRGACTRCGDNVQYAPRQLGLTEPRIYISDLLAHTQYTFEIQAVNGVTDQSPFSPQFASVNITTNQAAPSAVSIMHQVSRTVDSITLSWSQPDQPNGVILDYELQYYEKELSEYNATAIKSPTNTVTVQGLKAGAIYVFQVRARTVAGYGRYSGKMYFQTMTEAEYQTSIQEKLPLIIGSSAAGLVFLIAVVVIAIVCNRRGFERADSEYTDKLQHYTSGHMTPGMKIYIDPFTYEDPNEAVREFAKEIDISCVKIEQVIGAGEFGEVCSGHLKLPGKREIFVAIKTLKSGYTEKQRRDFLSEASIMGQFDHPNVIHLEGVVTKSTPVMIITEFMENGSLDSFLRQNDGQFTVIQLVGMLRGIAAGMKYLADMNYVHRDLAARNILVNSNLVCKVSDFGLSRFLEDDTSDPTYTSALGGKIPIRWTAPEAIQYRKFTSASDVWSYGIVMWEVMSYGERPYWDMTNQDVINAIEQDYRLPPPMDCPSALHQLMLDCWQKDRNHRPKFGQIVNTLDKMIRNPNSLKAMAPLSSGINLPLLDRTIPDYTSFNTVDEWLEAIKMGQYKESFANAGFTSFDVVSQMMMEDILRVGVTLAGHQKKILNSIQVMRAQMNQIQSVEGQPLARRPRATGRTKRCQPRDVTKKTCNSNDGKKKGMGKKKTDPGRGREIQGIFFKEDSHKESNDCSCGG

T1 sequence (P00533 25-1210 G719C): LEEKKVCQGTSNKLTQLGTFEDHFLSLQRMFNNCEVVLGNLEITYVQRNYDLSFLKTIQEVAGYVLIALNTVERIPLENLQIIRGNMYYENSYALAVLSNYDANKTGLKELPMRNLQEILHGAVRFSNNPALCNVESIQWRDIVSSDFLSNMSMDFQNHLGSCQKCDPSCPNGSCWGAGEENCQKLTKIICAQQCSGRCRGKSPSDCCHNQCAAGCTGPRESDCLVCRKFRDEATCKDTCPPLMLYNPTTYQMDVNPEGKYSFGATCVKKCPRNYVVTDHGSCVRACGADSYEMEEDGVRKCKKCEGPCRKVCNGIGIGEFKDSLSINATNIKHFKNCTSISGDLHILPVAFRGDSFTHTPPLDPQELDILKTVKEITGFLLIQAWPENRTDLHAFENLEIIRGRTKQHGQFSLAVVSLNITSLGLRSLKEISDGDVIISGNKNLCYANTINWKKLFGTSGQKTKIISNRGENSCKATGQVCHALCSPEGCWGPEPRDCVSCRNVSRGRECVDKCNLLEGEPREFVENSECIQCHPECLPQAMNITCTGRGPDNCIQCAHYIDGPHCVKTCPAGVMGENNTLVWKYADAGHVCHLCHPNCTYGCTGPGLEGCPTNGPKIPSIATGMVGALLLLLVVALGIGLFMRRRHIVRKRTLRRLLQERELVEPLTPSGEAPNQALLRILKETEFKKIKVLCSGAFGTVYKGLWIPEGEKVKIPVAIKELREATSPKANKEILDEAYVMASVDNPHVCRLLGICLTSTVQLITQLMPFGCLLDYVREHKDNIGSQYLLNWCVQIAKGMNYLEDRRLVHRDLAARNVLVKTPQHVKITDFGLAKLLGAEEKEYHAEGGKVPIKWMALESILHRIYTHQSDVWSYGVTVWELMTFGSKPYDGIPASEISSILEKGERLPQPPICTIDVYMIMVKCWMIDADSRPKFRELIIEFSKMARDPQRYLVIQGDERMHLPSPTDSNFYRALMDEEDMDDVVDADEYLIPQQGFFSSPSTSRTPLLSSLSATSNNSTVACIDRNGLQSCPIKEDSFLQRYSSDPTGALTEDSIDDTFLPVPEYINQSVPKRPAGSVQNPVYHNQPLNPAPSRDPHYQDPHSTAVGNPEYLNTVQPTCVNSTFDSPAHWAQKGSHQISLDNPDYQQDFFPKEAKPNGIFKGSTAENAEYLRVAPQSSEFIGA

SMILES | score (%) (KinomeScan kinase panel [1]) | remaining binding at 10 µM (KinomeScan kinase panel [2]) [%] | remaining binding at 10 µM (KinomeScan kinase panel [3]) [%] | remaining binding at 10 µM (KinomeScan kinase panel [4]; ASK1, 10 µM) [%] | score (%) (KinomeScan kinase panel [5]) | remaining binding at 10 µM (KinomeScan kinase panel [4]; MAP3K5, 10 µM) [%]
CCN1CCN(Cc2ccc(NC(=O)c3ccc(C)c(NC(=O)c4cncc(-c5cccs5)c4)c3)cc2C(F)(F)F)CC1 [ALW-II-41-27] | 0.15 | > 30 | 12 | > 30 | 0 | –
CCN1CCN(Cc2ccc(NC(=O)c3ccc(C)c(C#Cc4cccnc4)c3)cc2C(F)(F)F)CC1 [XMD15-44] | 0.75 | > 30 | > 30 | > 30 | 0.1 | –
CCN1CCN(Cc2ccc(NC(=O)c3ccc(C)c(/C=C/c4cnc5[nH]ccc5c4Cl)c3)cc2C(F)(F)F)CC1 [HG-6-63-01, (E)-3-(2-(4-chloro-1H-pyrrolo[2,3-b]pyridin-5-yl)vinyl)-N-(4-((4-ethylpiperazin-1-yl)methyl)-3-(trifluoromethyl)phenyl)-4-methylbenzamide] | 0.1 | > 30 | > 30 | – | 1.1 | > 30
